Measured values reported in ChEMBL document CHEMBL4342407, “Thieno[2,3-d]pyrimidine as a promising scaffold in medicinal chemistry: Recent advances” (Bioorg Med Chem, 2019).
pIC50: −log10 of the molar value. Values belong to the compound of their own block, whether it stands above or below them.

What was measured:
Rattus norvegicus [1] = assay: Anti-ulcer activity in Wistar albino rat assessed as reduction in pylorus ligation induced ulcer at 250 mg/kg, ip pretreated for 1 hr followed by pylorus ligation and measured at 4 hrs post ligation; type: functional
[2] = Ulcerogenic activity in Wistar albino rat assessed as ulcer index at 250 mg/kg, ip pretreated for 1 hr followed by pylorus ligation and measured at 4 hrs post ligation; type: toxicity, organism-based; conditions: in vivo
Rattus norvegicus [3] = assay: Antiinflammatory activity in Sprague-Dawley rat assessed as protection against carrageenan-induced edema at 40 mg/kg, po pretreated for 1 hr followed by carrageenan challenge and measured after 3 hrs by mercury plethysmometer relative to control; type: functional
HepG2 [4] = assay: Antiproliferative activity against human HepG2 at 50 ug/ml after 48 hrs by MTT assay; type: functional; conditions: HepG2, 48 h
ECa-109 cell line = assay: Antiproliferative activity against human EC109 at 50 ug/ml after 48 hrs by MTT assay; type: functional; conditions: ECa-109, 48 h
MGC-803 = assay: Antiproliferative activity against human MGC803 at 50 ug/ml after 48 hrs by MTT assay; type: functional; conditions: MGC-803, 48 h
HeLa = assay: Antiproliferative activity against human HeLa after 24 hrs by MTT assay; type: functional, cell-based
MCF7 [5] = assay: Antiproliferative activity against human MCF7 after 24 hrs by MTT assay; type: functional, cell-based; conditions: MCF7, 24 h
Pseudomonas aeruginosa = assay: Antibacterial activity against Pseudomonas aeruginosa assessed as zone inhibition at 500 ug/ml by cup plate agar diffusion method; type: functional; conditions: read-out: IZ
Candida albicans = assay: […] activity against Candida albicans assessed as zone inhibition at 500 ug/ml by cup plate agar diffusion method; type: functional; conditions: read-out: IZ
Escherichia coli [6] = assay: Antibacterial activity against Escherichia coli assessed as zone inhibition at 500 ug/ml by cup plate agar diffusion method; type: functional; conditions: read-out: IZ
Staphylococcus aureus [7] = assay: Antibacterial activity against Staphylococcus aureus assessed as zone inhibition at 500 ug/ml by cup plate agar diffusion method; type: functional; conditions: read-out: IZ
Bacillus subtilis [8] = assay: Antibacterial activity against Bacillus subtilis assessed as zone inhibition at 500 ug/ml by cup plate agar diffusion method; type: functional; conditions: read-out: IZ
Klebsiella pneumoniae = assay: Antibacterial activity against Klebsiella pneumoniae assessed as zone inhibition at 100 ug/ml; type: functional; conditions: read-out: IZ
Staphylococcus aureus [9] = assay: Antibacterial activity against Staphylococcus aureus assessed as zone inhibition at 100 ug/ml; type: functional; conditions: read-out: IZ
Bacillus subtilis [10] = assay: Antibacterial activity against Bacillus subtilis assessed as zone inhibition at 100 ug/ml; type: functional; conditions: read-out: IZ
Escherichia coli [11] = assay: Antibacterial activity against Escherichia coli assessed as zone inhibition at 100 ug/ml; type: functional; conditions: read-out: IZ
HepG2 [12] = assay: Antiproliferative activity against human HepG2 cells by MTT assay; type: functional, cell-based
MCF7 [13] = assay: Antiproliferative activity against human MCF7 by MTT assay; type: functional, cell-based
Rattus norvegicus [14] = assay: Antiinflammatory activity in Wistar rat assessed as inhibition of cotton pellet-induced granuloma at 75 mg/kg, po administered daily for 7 days and measured on day 8 relative to control; type: functional
Rattus norvegicus [15] = assay: Antiinflammatory activity in po dosed Wistar rat assessed as reduction in carrageenan-induced paw edema pretreated for 1 hr followed by carrageenan challenge and measured over 2 to 4 hrs post carrageenan challenge by plethysmography; type: functional
Rattus norvegicus [16] = assay: Antiinflammatory activity in Wistar rat model of Freund's adjuvant-induced arthritis assessed as inhibition of arthritis by measuring reduction in paw volume at 75 mg/kg, po administered once daily for 8 days starting from day 7 post Freund's adjuvant treatment and measured after 18 days by mercury plethysmography relative to control; type: functional
[17] = Ulcerogenic activity in Sprague-Dawley rat assessed as ulcer index at 20 mg/kg, ip pretreated followed by pylorus ligation and measured at 4 hrs post ligation; type: toxicity, organism-based; conditions: in vivo
Mus musculus [18] = assay: Antiinflammatory activity in Swiss mouse assessed as inhibition of TPA-induced ear edema at 1 mg/ear applied topically and measured 4 hrs post-TPA challenge relative to control; type: functional
Mus musculus [19] = assay: Analgesic activity in Swiss albino mouse assessed as protection against acetic acid-induced writhing at 15 mg/kg, po pretreated for 30 mins followed by acetic acid challenge and measured after 20 mins relative to control; type: functional
HEp-2 = assay: Antiproliferative activity against human Hep2 after 24 hrs by MTT assay; type: functional, cell-based; conditions: HEp-2, 24 h
PC-3 = assay: Antiproliferative activity against human PC3 after 24 hrs by MTT assay; type: functional, cell-based; conditions: PC-3, 24 h
HepG2 [20] = assay: Antiproliferative activity against human HepG2 after 24 hrs by MTT assay; type: functional, cell-based; conditions: HepG2, 24 h

Structure (SMILES): COc1ccc(C2=NC3SC=C([C@H]4CC[C@H]5[C@@H]6CC=C7CC(O)CC[C@]7(C)[C@H]6CC[C@]45C)C3C(=O)N2N)cc1 (stereo partly specified)
inhibition in vivo at 250 mg/kg (Rattus norvegicus [1]): 91.9%
UI [2]: 0.29
Activity (Rattus norvegicus [3]): 92%

Structure (SMILES): CCc1cc2c(=O)n(NC(c3cccc([N+](=O)[O-])c3)P(=O)(OC(C)C)OC(C)C)c(C)nc2s1 (stereo unspecified)
inhibition at 50 µg/mL (HepG2 [4]): 90.8%
inhibition at 50 µg/mL (ECa-109 cell line): 45.3%
inhibition at 50 µg/mL (MGC-803): 63.6%

pIC50 (HeLa): 4.34
pIC50 (MCF7 [5]): 4.39
Structure (SMILES): CC(=O)O[C@H]1C(=O)[C@@]2(C)[C@H]([C@H](OC(=O)c3ccccc3)[C@]3(O)C[C@H](OC(=O)[C@H](O)[C@@H](NC(=O)c4ccccc4)c4ccccc4)C(C)=C1C3(C)C)[C@]1(OC(C)=O)CO[C@@H]1C[C@@H]2O [PACLITAXEL]

pIC50 (HeLa): 4.39
pIC50 (MCF7 [5]): 4.28
Structure (SMILES): Nc1c(C(=O)Nc2ccccc2)sc2nc(N3CCOCC3)nc(-c3ccccc3)c12

Structure (SMILES): c1ccc2c(c1)N=C(c1cnccn1)CC(c1cc3cncnc3s1)S2 (stereo unspecified)
zone of inhibition at 500 µg/mL (Pseudomonas aeruginosa): 13.4 mm
zone of inhibition at 500 µg/mL (Candida albicans): 10.8 mm
zone of inhibition at 500 µg/mL (Escherichia coli [6]): 13.6 mm
zone of inhibition at 500 µg/mL (Staphylococcus aureus [7]): 15.7 mm
zone of inhibition at 500 µg/mL (Bacillus subtilis [8]): 16.2 mm

Structure (SMILES): FC(F)(F)c1ccc(C2=NOC(c3cc4cncnc4s3)C2)cc1 (stereo unspecified)
zone of inhibition at 100 µg/mL (Klebsiella pneumoniae): 16.5 mm
zone of inhibition at 100 µg/mL (Staphylococcus aureus [9]): 15 mm
zone of inhibition at 100 µg/mL (Bacillus subtilis [10]): 13 mm
zone of inhibition at 100 µg/mL (Escherichia coli [11]): 17 mm

pIC50 (HepG2 [12]): < 4.00
pIC50 (MCF7 [13]): 4.08
Structure (SMILES): Cc1ccccc1CNc1nc(C(F)(F)F)nc2sc3c(c12)CCC3

Structure (SMILES): CCc1cc2c(=O)n(NC(c3ccc([N+](=O)[O-])cc3)P(=O)(OC(C)C)OC(C)C)c(C)nc2s1 (stereo unspecified)
inhibition at 50 µg/mL (HepG2 [4]): 58.1%
inhibition at 50 µg/mL (ECa-109 cell line): 58.5%
inhibition at 50 µg/mL (MGC-803): 84.3%

Structure (SMILES): FC(F)(F)Oc1ccc(C2=NOC(c3cc4cncnc4s3)C2)cc1 (stereo unspecified)
zone of inhibition at 100 µg/mL (Klebsiella pneumoniae): 15 mm
zone of inhibition at 100 µg/mL (Staphylococcus aureus [9]): 14.5 mm
zone of inhibition at 100 µg/mL (Bacillus subtilis [10]): 12.5 mm
zone of inhibition at 100 µg/mL (Escherichia coli [11]): 16.5 mm

Structure (SMILES): CCOP(=O)(OCC)C(Nn1c(C)nc2sc(CC)cc2c1=O)c1ccc([N+](=O)[O-])cc1 (stereo unspecified)
inhibition at 50 µg/mL (HepG2 [4]): 61.1%
inhibition at 50 µg/mL (ECa-109 cell line): 54%
inhibition at 50 µg/mL (MGC-803): 59.8%

pIC50 (HeLa): 4.22
pIC50 (MCF7 [5]): 4.37
Structure (SMILES): Nc1c(C(=O)Nc2ccc(I)cc2)sc2nc(N3CCOCC3)nc(-c3ccccc3)c12

Structure (SMILES): CCc1cc2c(=O)n(/N=C/c3ccccc3)c(C)nc2s1
inhibition at 50 µg/mL (HepG2 [4]): 57%
inhibition at 50 µg/mL (ECa-109 cell line): 51.4%
inhibition at 50 µg/mL (MGC-803): 74.6%

Structure (SMILES): CC(=C(C#N)C(=O)NN)[C@H]1CC[C@H]2[C@@H]3CC=C4CC(O)CC[C@]4(C)[C@H]3CC[C@]12C (stereo partly specified)
inhibition in vivo at 250 mg/kg (Rattus norvegicus [1]): 41.4%
UI [2]: 2.11
Activity (Rattus norvegicus [3]): 90%

Structure (SMILES): CCOP(=O)(OCC)C(Nn1c(C)nc2sc(CC)cc2c1=O)c1ccccc1 (stereo unspecified)
inhibition at 50 µg/mL (HepG2 [4]): 66%
inhibition at 50 µg/mL (ECa-109 cell line): 66.3%
inhibition at 50 µg/mL (MGC-803): 50.3%

Structure (SMILES): C[C@]12CC[C@H]3[C@@H](CC=C4C[C@H](O)CC[C@@]43C)[C@@H]1CC[C@@H]2c1csc(N)c1-c1nnc(SCC(=O)c2ccccc2)n1-c1ccccc1
inhibition in vivo at 250 mg/kg (Rattus norvegicus [1]): 76.9%
UI [2]: 0.83
Activity (Rattus norvegicus [3]): 99%

Structure (SMILES): CC(=O)Oc1ccccc1C(=O)O [ASPIRIN]
inhibition in vivo at 75 mg/kg (Rattus norvegicus [14]): 30.1%
ED50 (Rattus norvegicus [15]): 69.3 mg/kg
inhibition in vivo at 75 mg/kg (Rattus norvegicus [16]): 40%
UI [17]: 1.1 to 1.7
inhibition (INH) (Mus musculus [18]): 20.1%
Activity (Mus musculus [19]): 53%

Structure (SMILES): CN1C(C(=O)Nc2ccccn2)=C(O)c2ccccc2S1(=O)=O [PIROXICAM]
inhibition in vivo at 75 mg/kg (Rattus norvegicus [14]): 67.9%
ED50 (Rattus norvegicus [15]): 7.8 mg/kg
inhibition in vivo at 75 mg/kg (Rattus norvegicus [16]): 51.6%
inhibition (INH) (Mus musculus [18]): 12.2%

pIC50 (HepG2 [12]): 5.14
pIC50 (MCF7 [13]): 5.29
Structure (SMILES): Fc1cccc(CNc2nc(C(F)(F)F)nc3sc4c(c23)CCC4)c1

Structure (SMILES): COc1cccc2c1C(=O)c1c(O)c3c(c(O)c1C2=O)C[C@@](O)(C(=O)CO)C[C@@H]3O[C@H]1C[C@H](N)[C@H](O)[C@H](C)O1 [DOXORUBICIN]
pIC50 (HEp-2): 5.20

Structure (SMILES): CC(C)Cc1ccc(C(C)C(=O)O)cc1 (stereo unspecified) [IBUPROFEN]
inhibition in vivo at 75 mg/kg (Rattus norvegicus [14]): 44.6%
ED50 (Rattus norvegicus [15]): 19.7 mg/kg
inhibition (INH) (Mus musculus [18]): 40.2%

pIC50 (HeLa): 4.81
pIC50 (PC-3): 4.73
pIC50 (HepG2 [20]): 4.58
pIC50 (MCF7 [5]): 4.62
Structure (SMILES): Cc1c(C(=O)/C=C/c2cccs2)sc2nc(S)n(-c3ccccc3)c(=O)c12
pIC50 (HEp-2): 4.59
